The values that follow come from paper PMC10117725, “From an Hsp90 - binding protein to a peptide drug” (microLife, 2022).

Where no end group is shown, it is not given here.

The test system of data set [1] is S. aureus USA300 internalization by HaCaT cells. Put plainly: S. aureus USA300 invasion (internalization) into HaCaT keratinocytes. It counts as cell-based, human. As to conditions: for relative invasion (intracellular USA300 count) in HaCaT at 20 µM: peptide 20 µM; for relative invasion (intracellular USA300 count) in HaCaT at 50 µM: peptide 50 µM; for decrease in uptake/invasion of S. aureus USA300 by HaCaT cells compared to untreated control: preincubation with L15 20 µM, L13 30 µM, geldanamycin 5 µM or α-Hsp90α antibody, MOI 30; for concentration from which a significant reduction of intracellular USA300 was observed: tested 0 to 50 µM in HaCaT. As for the experimental part:
The invasion protocol was adapted from our previous papers (Nguyen et al. [2015], Tribelli et al. [2020]). About 5 × 10^5 Keratinocytes were seeded in a 24 well plate (Greiner, Frickenhausen, Germany) to attain a monolayer of ∼10^6 cells/well. Staphylococcusaureus was grown overnight at 37°C, centrifuged and suspended in invasion medium (DMEM with 10% FBS for HaCaT and K-SFM for NTERT-1 cells). The adherent keratinocytes were […], or 5 µM geldanamycin (Sigma-Aldrich, Germany) or monoclonal antibodies specific against Hsp90α (α‐Hsp90α, Abcam) for 1 h. After 1 h, 100 µl of bacterial suspension was added to each well to attain a MOI (multiplicity of infection) of 30 and incubated with cells for 1.5 h. Subsequently, the extracellular bacteria were killed with treatment of 2.5 μg/ml lysostaphin (Sigma-Aldrich, Germany) for 1.5 h. The cells were then washed, lysed, mechanically detached by scraping, diluted, and enumerated on TSA (Tryptic Soy Agar) plates to quantify the intracellular bacteria.

In another data set the test system is Staphylococcus aureus. Description: Bacterial growth kinetics. It is filed as cell-based. The conditions noted are these: OD578 every 1 h for 24 h, 37°C, TSB. Here is the method: Staphylococcus aureus precultured in TSB overnight were inoculated to OD∼0.01 into a 48 well plate and L15 and L13 were added to study the effect of peptides on bacterial growth using Varioskan LUX Multimode Microplate Reader. With this instrument, a kinetic measurement of OD578 nm was obtained every 1 h for a total of 24 h, at 37°C with continuous shaking.

In data set [2] the test system is phagocytosis by primary human CD14+ monocytes. Put plainly: Phagocytosis of S. aureus USA300 by CD14+ monocytes. It counts as cell-based. As to conditions: L15 20 µM, L13 30 µM, geldanamycin 5 µM, 60 min preincubation; MOI 30, 90 min; n = 4 donors; SEM. Here is the method:
Peripheral Blood Mononuclear cells (PBMCs) were isolated by density gradient centrifugation following the previous study (Nguyen et al. [2022]). From the pool of PBMCs, monocytes were isolated by positive selection with anti-human CD14 microbeads (Miltenyi Biotech, Bergisch-Gladbach, Germany) following a previously reported protocol (Nguyen et al. [2022]). The purity was analysed by flow cytometry on a BD Accuri C6 (BD Biosciences, Heidelberg, Germany) with anti-human CD14-FITC, CD45-PE and propidium iodide (BD Biosciences, Heidelberg, Germany) and ranged from 85% to 98%.
For the phagocytosis, 10^6 CD14^+ monocytes were seeded in 1 ml of medium (RPMI supplemented with L-Glutamine and 10% FCS) in a 12 well plate (Greiner, Germany). The cells were incubated with 20 µM of L15, 30 µM of L13, or 5 µM of Geldanamycin for 60 min at 37°C and 5% CO2 before addition of bacteria. For the phagocytosis assay, bacterial cells were resuspended in 100 µl RPMI medium at MOI of 30 and incubated with monocytes for 90 min. The cells were washed once with PBS and 0.5 ml of medium supplemented with 2.5 µg/ml of Lysostaphin was added for 90 min to remove the extracellular bacteria. Then, monocytes were washed twice with PBS and resuspended in 0.5 ml of milliQ dH2O. The cells were scraped, and the lysed solution was transferred into a new 1.5 ml Eppendorf tube for a 5 min sonication (frequency 80, power 100) at room temperature to prevent the bacterial cell clumping by using ultrasonic water bath Elmasonic P (Elma Schmidbauer Gmb, Singen, Germany). About 10 µl fractions of undiluted, 10^−1, 10^−2, and 10^−3 dilutions were inoculated on tryptic soy agar (TSA) plates and incubated overnight at 37°C. The numbers of internalized bacteria were determined based on the manual counting of bacterial colony forming units (cfu) recovered on the agar plates.

The subject of data set [3] is S. aureus USA300 infected PBMCs. Description: Cytokine release of S. aureus USA300 infected PBMCs (ELISA). It is filed as cell-based, human. As to conditions: L15 20 µM, L13 30 µM, geldanamycin 5 µM; 20 h; n = 5; vs unstimulated infected PBMCs.
Data set [4] concerns F-actin levels in HaCaT cells. Put plainly: F-actin measurement (ActinGreen 488 fluorescence) in HaCaT cells. As to conditions: 35 µg/ml peptide (L15 20 µM, L13 30 µM), geldanamycin 5 µM; 1.5 h; ActinGreen 488 fluorescence relative to control. It is filed as cell-based, human. As for the experimental part: About 5 × 10^4 cells were seeded in black flat bottom 96 well cell culture microplate (Greiner, Germany) and incubated overnight. The cells were then incubated with peptides or geldanamycin for 1.5 h. After incubation, the cells were washed, permeabilised with 0.1% (v/v) Triton X-100 and stained with ActinGreen™ 488 ReadyProbes® (Thermo Fischer, Germany) for 30 min. After the staining, the cells were washed and measure for its fluorescence at Excitation/Emission: 495/518 nm (Luqman et al. [2020]).

The subject of data set [5] is total ATPase activity in HaCaT cells. Description: Total ATPase activity in HaCaT cells. It is filed as cell-based, human. As to conditions: Fig. S4.
In a further data set the test system is HaCaT cells. Put plainly: MTT cytotoxicity in HaCaT cells. It is filed as cell-based, human. The conditions noted are these: for toxicity to HaCaT cells at tested concentration and exposure time: concentrations used in invasion studies (Fig. S1). Here is the method: (§1) MTT (3-(4,5-dimethylthiazol-2-yl)-2,5-diphenyl tetrazolium bromide) assay was employed to analyze the cytotoxicity of peptides and geldanamycin to the cells. 5 × 10^5 cells were seeded in a 96 flat bottom well plate and incubated for 2.5 or 24 h at 37°C with 5% CO2. The cells were then treated with increasing concentration (0 to 200 µM) of peptides or geldanamycin for 24 h. After the incubation, 10 μl of the MTT labelling reagent is added to each well to attain a final concentration 0.5 mg/ml, followed by 4 h incubation. Metabolically active cells convert the yellow tetrazolium salt to purple formazan crystals, which were solubilized using the solubilization solution (DMSO) and measured for absorbance at λmax/λref–570/690 nm (Saising et al. [2018]).

A further data set deals with N/TERT-1 cells. Description: Cytotoxicity in N/TERT-1 cells at tested concentration. It is filed as cell-based, human. As to conditions: concentrations used in invasion studies (Fig. S1). Here is the method:
as §1

As for GHYFVTTFY [L13], in data set [1] (untreated control 1.0 ± 0.0), the “relative invasion (intracellular USA300 count) in HaCaT at 20 µM” value came out at 0.67 ± 0.05 and the “relative invasion (intracellular USA300 count) in HaCaT at 50 µM” value was found to be 0.73 ± 0.18. Also, the “relative invasion (intracellular USA300 count) in HaCaT at 40 µM” value in data set [1] (peptide 40 µM, untreated control 1.0 ± 0.0) amounted to 0.41 ± 0.03. In addition, in data set [1], the “decrease in uptake/invasion of S. aureus USA300 by HaCaT cells compared to untreated control” value is recorded as 50–60% and the “concentration from which a significant reduction of intracellular USA300 was observed” value is reported as at least 20 µM. Further, the “effect on growth of S. aureus” value with Staphylococcus aureus is given as “did not detect any effect on growth”. In addition, the “decrease of phagocytosis of S. aureus into CD14+ monocytes” value in data set [2] was “about 62.0 ± 6.80%”. Also, the “IL-6 production of infected PBMCs” value in data set [3] is on record as “significantly increased”. The “Relative F-actin level in HaCaT” value in data set [4] is 0.87 ± 0.03. The “effect on total ATPase activity in HaCaT cells” value in data set [5] is listed as “could not detect any significant inhibition”. In addition, the “percentage of viable cells, HaCaT, 1 µM” value in the data set with HaCaT cells (MTT, 24 h, 1 µM) was 103.05 ± 10.06%. The “percentage of viable cells, HaCaT, 200 µM” value in the data set with HaCaT cells (MTT, 24 h, 200 µM) is 83.79 ± 11.13%. In addition, in the data set on HaCaT cells, the “toxicity to HaCaT cells at tested concentration and exposure time” value is reported as “neither inhibit the viability of host cells”. In the data set with N/TERT-1 cells, the “toxicity to N/TERT-1 cells at tested concentration and exposure time” value is listed as “neither inhibit the viability of host cells”.
For the sequence TAKGHYFVTTFYRNG [L15], in data set [1] (untreated control 1.0 ± 0.0), the “relative invasion (intracellular USA300 count) in HaCaT at 20 µM” value is 0.33 ± 0.24 and the “relative invasion (intracellular USA300 count) in HaCaT at 50 µM” value stood at 0.40 ± 0.05. For the same sequence, in data set [1], the “decrease in uptake/invasion of S. aureus USA300 by HaCaT cells compared to untreated control” value is 50–60% and the “concentration from which a significant reduction of intracellular USA300 was observed” value was at least 20 µM. Moreover, the “effect on growth of S. aureus” value in the data set on Staphylococcus aureus is on record as “did not detect any effect on growth”. In addition, the “decrease of phagocytosis of S. aureus into CD14+ monocytes” value in data set [2] was “about 22.6 ± 7.67%”. In addition, the “IL-6 production of infected PBMCs” value in data set [3] is listed as “significantly increased”. Also, the “Relative F-actin level in HaCaT” value in data set [4] was 0.83 ± 0.04. The “effect on total ATPase activity in HaCaT cells” value in data set [5] is listed as “could not detect any significant inhibition”. In addition, the “toxicity to HaCaT cells at tested concentration and exposure time” value with HaCaT cells is listed as “neither inhibit the viability of host cells”. Besides, in the data set on N/TERT-1 cells, the “toxicity to N/TERT-1 cells at tested concentration and exposure time” value is reported as “neither inhibit the viability of host cells”.
